The text below walks through data of publication PMC7156724, “Potent BRD4 inhibitor suppresses cancer cell-macrophage interaction” (Nature Communications, 2020).

Data set [1] is described as follows: Metabolic stability assay, dog liver microsomes. Particulars: for Remaining in Dog liver microsomes (Sup Fig.6c): in % (unit assumed). The method, then: 7. Metabolic stability assay. The metabolic profile of NHWD-870 was determined using mouse, rat, dog, monkey, and human liver microsomes using the protocols […]
No. Compound ID Exat Mass Stock Conc.
1) 100 mM potassium phosphate buffer, PH7.4; 2) 10mM MgCI2
1) Intermediate solution: Dilute 5 μL of compound or control from stock solution (10 mM) with 45 uL DMSO,then mixed with 450 μL 1:1 Methanol/Water (Conc.: 10 0 […]
2) Working solution: Dilute 50 μL from intermediate solution with 450 μL 100 mM potassium phosphate buffer (Conc.: 10 μM, 4.5%MeOH)
(3) NADPH regenerating system (final Isocitric dehydrogenase conc.= 1 unit/mL at […]
1) β-Nicotinamide adenine dinucleotide phosphate, Vendor: sigma Cat. No. N0505
2) Isocitric acid, Vendor: Sigma Cat. No. I1252
3) Isocitric dehydrogenase, Vendor: sigma Cat. No. I2002
(4) Liver microsome solution preparation (final concentration o f 0.5 mg protein/mL) […]
Cold ACN including 100 ng/mL Tolbutamide and 100 ng/mL Labetalol as internal […]
1) Add 10 μL compound or control working solution/well to all plates (T0, T5, T10, T20, T30, T60, NCF60) except matrix blank.
2) Dispense 680 μL/well microsome solution to 96-well plate as reserv oir according to […]
plate map. Then add 80 μL/well to every plate by Apricot, incubate the mixture of microsome solution and compound at 37℃ for about 10 min.
3) Add 10 μL 100 mM potassium phosphate buffer/well to NCF60, incubate at 37℃, […]
4) After pre-warming, dispense 90 μL/well NADPH regenerating system to 96-well plate as reservoir according to the plate map. Then add 10 μL/well to every plate by Apricot to start reaction.
5) Incubate at 37℃, start timer 2.
6) Add 300 (μL/well) stop solution (cold in 4℃, including 100 ng/mL Tolbutamide and 100 ng/mL Labetalol) to terminate the reaction.
7) The sampling plates are shaked for approx 10 min.
8) Samples are centrifuged at 4000 rpm for 20 min under 4℃.
9) While centrifuging, load 8×new 96-well plate with 300 μL HPLC water, then transfer 100 μL supernatant, mixed for LC/MS/MS.
Use equation of first order kinetics to calculate t1/2 and Clin t(mic): […]
Equation of first order kinetics: […]
(Liver microsomes are a subcellular fraction often used to study metabolism.)

The target in data set [2] is T1, human Ether-à-go-go related gene (hERG) channel (Homo sapiens, UniProt Q12809).
T1 construct: host or cells: HEK293, stably transfected, expression induced with doxycycline
In words: hERG channel assay, manual patch-clamp. The data set is classed as cell-based. Particulars: HEK293 cells stably transfected with hERG, read-out: IC50, inhibition of hERG channel. The method, then:
calculated concentration on the dialysate side of the membrane; T0 = To t a l compound concentration as determined before dialysis. Good plasma stability should have a value of not less than 80% bound, and the recovery rate should be […]
9. In vivo pharmacokinetics study. Mouse and SD rat models were used to evaluate pharmacokinetic property of NHWD-870. NHWD-870 was administrated by either intravenous injection (IV, 1.75 mg/kg for mouse and 1 mg/kg for rat) or oral gavage (PO, 5 mg/kg) into mice or rats. Concentration of drugs in plasma, lung and tumor tissues were measured for the indicated time.
10. hERG channel assay. The potential inhibitory effect of NHWD-870 on human Ether-à-go-go related gene (hERG) channel was evaluated by manual patch-clamp system using the protocols described below. HEK293 cell line stably
(Block of hERG is tested as a sign of cardiac risk.)

In data set [3] the test system is human melanoma patient-derived xenograft (PDX). Kind of data set: Human melanoma patient-derived xenograft (PDX) tumor growth. The data set is classed as in vivo, NSG mice. The note with it: human melanoma PDX, once daily (5 days on, 2 days off) 21 days, NHWD-870-HCl. An excerpt:
PO, oral administration; QD, once daily; BID, twice daily. b–d Tumor growth curves for A2780 ovarian tumor (n = 5) (b), TMD8 large B cell lymphoma (n = 6) (c), and B16F10 melanoma (n = 5) (d) bearing mice treated with the indicated compounds once daily for 11-21 days. e, f Tumor growth curves for A375 melanoma (n = 6) (e), and patient-derived xenograft (PDX) of melanoma (n = 5) (f) bearing mice treated with the indicated compounds once daily (5 days on, 2 days off) for 21 days. For d–f, NHWD-870 used is NHWD-870-HCl synthesized using Suzuki coupling route. Data are presented as mean ± SEM in (a, b, d, f) and mean + SEM in (c, e). p values were calculated using two-tailed, unpaired t tests. *p < 0.05; **p < 0.01; ***p < 0.001. Source data are provided as a Source Data file.
4–6 weeks old female BALB/c nude mice were used for most experiments, with the exception of 6–8 weeks old female C57BL/6 mice were used for B16F10 experiments, and 6–8 weeks old male BALB/c nude mice and SD rats were used for pharmacokinetic experiments. All animals were purchased from Shanghai SIPPR-Bk Lab Animal Co., Ltd. All animals were housed under a regimen of 12 h light/12 h dark cycles and specific pathogen-free conditions. 5×10^6 NCI-H526, ES-2, MDA-MB231, A2780, A375, B16F10, and TMD-8 cells (0.1 ml) were injected subcutaneously into female nude mice. The melanoma patient-derived xenograft model was derived from a human melanoma sample (BRAF, NARS and NF1 wild type, and p53 mutant) removed from a patient in Xiangya Hospital. Surgically removed tumor fragments were implanted subcutaneously into female NSG mice. When the tumors grew to ~1000 mm^3, they were harvested and cryopreserved or immediately re-implanted for expansion or experiments. Mouse body weight and tumor sizes were measured every 3 days. Once the tumors grew to 150–200 mm^3, mice were treated with the compounds as described in the Figures. 1 × 10^6 A2780 cells (1 ml) were injected into the abdominal cavity of nude mice. Ascitic volume and tumor weight were measured by an electronic balance. All the procedures were evaluated and approved by the Institutional Animal Care and Use Committee of Central South University and Yale University.

Setting [4] is: Beagle, dog, liver microsomes, pH 7.4.

T1 sequence (Q12809 whole entry): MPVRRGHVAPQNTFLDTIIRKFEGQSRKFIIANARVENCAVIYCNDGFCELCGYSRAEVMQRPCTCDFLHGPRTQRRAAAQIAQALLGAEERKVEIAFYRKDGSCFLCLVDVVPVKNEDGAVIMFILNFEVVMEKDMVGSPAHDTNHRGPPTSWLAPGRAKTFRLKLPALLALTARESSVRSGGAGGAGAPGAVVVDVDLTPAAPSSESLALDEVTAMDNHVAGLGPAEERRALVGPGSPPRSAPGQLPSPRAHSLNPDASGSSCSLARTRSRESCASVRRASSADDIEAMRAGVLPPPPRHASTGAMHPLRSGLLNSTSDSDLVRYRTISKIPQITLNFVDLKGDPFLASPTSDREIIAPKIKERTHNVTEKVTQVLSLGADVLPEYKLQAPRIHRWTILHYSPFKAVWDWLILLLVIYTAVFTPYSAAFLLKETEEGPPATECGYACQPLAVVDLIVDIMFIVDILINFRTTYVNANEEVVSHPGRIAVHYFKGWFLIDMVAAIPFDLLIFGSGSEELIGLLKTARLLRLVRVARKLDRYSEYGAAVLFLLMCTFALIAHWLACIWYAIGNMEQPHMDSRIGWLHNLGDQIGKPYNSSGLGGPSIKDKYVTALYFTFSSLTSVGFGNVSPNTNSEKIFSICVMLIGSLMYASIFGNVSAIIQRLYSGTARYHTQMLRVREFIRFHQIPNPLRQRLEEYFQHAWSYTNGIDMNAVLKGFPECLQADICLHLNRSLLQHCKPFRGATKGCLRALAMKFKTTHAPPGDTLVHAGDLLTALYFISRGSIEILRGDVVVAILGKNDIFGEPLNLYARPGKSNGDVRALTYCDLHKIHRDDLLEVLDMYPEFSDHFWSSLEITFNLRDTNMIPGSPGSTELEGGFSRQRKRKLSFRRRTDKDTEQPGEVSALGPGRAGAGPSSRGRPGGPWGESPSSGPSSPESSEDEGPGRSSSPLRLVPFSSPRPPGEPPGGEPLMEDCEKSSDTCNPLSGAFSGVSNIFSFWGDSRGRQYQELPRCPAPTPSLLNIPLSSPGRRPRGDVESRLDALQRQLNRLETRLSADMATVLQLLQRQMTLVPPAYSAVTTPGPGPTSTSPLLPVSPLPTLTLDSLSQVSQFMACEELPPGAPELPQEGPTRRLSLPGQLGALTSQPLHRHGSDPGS

Usually CLint scaled stands for the rate of metabolic loss divided by the concentration. High values mean rapid turnover, low ones slow turnover. The half-life is the time in which the quantity being followed falls by half. Read a low half-life as fast loss. What is called microsomal CLint is a measure of how fast metabolising enzymes remove a compound, apart from limits set by blood flow. Broadly, the IC50 is the concentration needed to halve the response being measured. In the case of `Cc1nnn(C)c1-c1cnc2c3c4cnn(C)c4ccc3n([C@H](c3ccccc3)C3CCOCC3)c2c1` [NHWD-870], the intrinsic clearance (CLint scaled) at 1 µM in data set [1] (setting [4]) came to 95.9 mL/min/kg. The half-life at 1 µM in data set [1] (setting [4]) came to 20.8 min. The same molecule gave a microsomal CLint at 1 µM in data set [1] (Beagle, dog, microsomes, pH 7.4) of 66.6 µL/min/mg. Also, the “Remaining (T=60min)” value in data set [1] (dog liver microsomes) was 12.4%. The “Remaining (*NCF=60min)” value in data set [1] (dog liver microsomes, no cofactor) is 84.1%. For the same molecule, the “Remaining in Dog liver microsomes (Sup Fig.6c)” value was 100 in data set [1] (time 0); 89.9 in data set [1] (time 5); 73.773 in data set [1] (time 10); 58.934 in data set [1] (time 20); 41.202 in data set [1] (time 30); 25.67 in data set [1] (time 60). Further, the 50% inhibitory concentration (IC50) in data set [2] worked out at 5.4 µM. The “effect on tumor growth” value in data set [3] is reported as “very strong tumor inhibitive effects”.
